Patent publication US20230301300A1, “HERBICIDAL COMPOSITIONS” (SYNGENTA CROP PROTECTION AG, priority 2020, published 2023)

Assays:
Assay in all cases: B2 Post-Emergence Efficacy - Test 2
Type in all cases: in vivo
[1] = test system: Alopecurus myosuroides (ALOMY); details: 15 days after application, 0-100 scale
How it was run: (§1)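 Glasshouse post-emergence test: plants sown in standard soil, grown 12 days (24/18 °C or 20/16 °C day/night; 16 h light; 65% humidity), sprayed once with an aqueous IF50-based formulation including 0.2% v/v Genapol X080. Visual injury, 0–100, recorded 15 days post-application.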

[2] = test system: Beta vulgaris (BEAVA); details: 15 days after application, 0-100 scale
How it was run: as §1

[3] = test system: Bidens pilosa (BIDPI); details: 15 days after application, 0-100 scale
How it was run: as §1

[4] = test system: Brassica napus (BRSNN); details: 15 days after application, 0-100 scale
How it was run: as §1

[5] = test system: Chenopodium album (CHEAL); details: 15 days after application, 0-100 scale
How it was run: as §1

[6] = test system: Digitaria sanguinalis (DIGSA); details: 15 days after application, 0=no damage, 100=total kill
How it was run: as §1

[7] = test system: Eleisine indica (ELEIN); details: 15 days after application, 0=no damage, 100=total kill
How it was run: as §1

[8] = test system: Galium aparine (GALAP); details: 15 days after application, 0-100 scale
How it was run: as §1

[9] = test system: Lolium perenne (LOLPE); details: 15 days after application, 0-100 scale
How it was run: as §1

[10] = test system: Panicum miliaceum (PANMI); details: 15 days after application, 0=no damage, 100=total kill
How it was run: as §1

[11] = test system: Poa annua (POAAN); details: 15 days after application, 0-100 scale
How it was run: as §1

[12] = test system: Sida spinosa (SIDSP); details: 15 days after application, 0-100 scale
How it was run: as §1

[13] = test system: Sorghum bicolour (SORVU); details: 15 days after application, 0=no damage, 100=total kill
How it was run: as §1

[14] = test system: Stellaria media (STEME); details: 15 days after application, 0-100 scale
How it was run: as §1

[15] = test system: Triticum aestivum (TRZAW); details: 15 days after application, 0-100 scale
How it was run: as §1

[16] = test system: Veronica persica (VERPE); details: 15 days after application, 0-100 scale
How it was run: as §1

[17] = test system: Xanthium strumarium (XANST); details: 15 days after application, 0-100 scale
How it was run: as §1

[18] = test system: Zea mays (ZEAMX); details: 15 days after application; for Herbicidal activity ZEAMX: 0-100 scale; for Herbicidal activity on a 0-100 scale, ZEAMX: 0=no damage, 100=total kill
How it was run: as §1

Question: Which results are given for `Cc1nn(C)c(=O)c(-c2c(F)ccc(Cl)c2CCc2ccc(C#N)cc2)c1O` [Compound 1.024, 4-[3-chloro-6-fluoro-2-[2-[4-(cyano)phenyl]ethyl]phenyl]-5-hydroxy-2,6-dimethyl-pyridazin-3-one]?
Answer: Herbicidal activity ALOMY ([1]; 15 g/Ha): 10; Herbicidal activity ALOMY ([1]; 30 g/Ha): 30; Herbicidal activity ALOMY ([1]; 60 g/Ha): 50; Herbicidal activity ALOMY ([1]; 125 g/Ha): 70; Herbicidal activity ALOMY ([1]; 250 g/Ha): 70; Herbicidal activity ALOMY ([1]; 500 g/Ha): 70; Herbicidal activity BEAVA ([2]; 15 g/Ha): 70; Herbicidal activity BEAVA ([2]; 30 g/Ha): 70; Herbicidal activity BEAVA ([2]; 60 g/Ha): 80; Herbicidal activity BEAVA ([2]; 125 g/Ha): 80; Herbicidal activity BEAVA ([2]; 250 g/Ha): 80; Herbicidal activity BEAVA ([2]; 500 g/Ha): 100; Herbicidal activity BIDPI ([3]; 15 g/Ha): 80; Herbicidal activity BIDPI ([3]; 30 g/Ha): 80; Herbicidal activity BIDPI ([3]; 60 g/Ha): 80; Herbicidal activity BIDPI ([3]; 125 g/Ha): 80; Herbicidal activity BIDPI ([3]; 250 g/Ha): 80; Herbicidal activity BIDPI ([3]; 500 g/Ha): 90; Herbicidal activity BRSNN ([4]; 15 g/Ha): 80; Herbicidal activity BRSNN ([4]; 30 g/Ha): 90; Herbicidal activity BRSNN ([4]; 60 g/Ha): 90; Herbicidal activity BRSNN ([4]; 125 g/Ha): 90; Herbicidal activity BRSNN ([4]; 250 g/Ha): 90; Herbicidal activity BRSNN ([4]; 500 g/Ha): 90; Herbicidal activity CHEAL ([5]; 15 g/Ha): 60; Herbicidal activity CHEAL ([5]; 30 g/Ha): 90; Herbicidal activity CHEAL ([5]; 60 g/Ha): 90; Herbicidal activity CHEAL ([5]; 125 g/Ha): 90; Herbicidal activity CHEAL ([5]; 250 g/Ha): 90; Herbicidal activity CHEAL ([5]; 500 g/Ha): 100; Herbicidal activity on a 0-100 scale, DIGSA ([6]; 15 g/Ha): 0; Herbicidal activity on a 0-100 scale, DIGSA ([6]; 30 g/Ha): 20; Herbicidal activity on a 0-100 scale, DIGSA ([6]; 60 g/Ha): 40; Herbicidal activity on a 0-100 scale, DIGSA ([6]; 125 g/Ha): 80; Herbicidal activity on a 0-100 scale, DIGSA ([6]; 250 g/Ha): 90; Herbicidal activity on a 0-100 scale, DIGSA ([6]; 500 g/Ha): 90; Herbicidal activity on a 0-100 scale, ELEIN ([7]; 15 g/Ha): 0; Herbicidal activity on a 0-100 scale, ELEIN ([7]; 30 g/Ha): 40; Herbicidal activity on a 0-100 scale, ELEIN ([7]; 60 g/Ha): 40; Herbicidal activity on a 0-100 scale, ELEIN ([7]; 125 g/Ha): 60; Herbicidal activity on a 0-100 scale, ELEIN ([7]; 250 g/Ha): 80; Herbicidal activity on a 0-100 scale, ELEIN ([7]; 500 g/Ha): 80; Herbicidal activity GALAP ([8]; 30 g/Ha): 20; Herbicidal activity GALAP ([8]; 60 g/Ha): 20; Herbicidal activity GALAP ([8]; 125 g/Ha): 60; Herbicidal activity GALAP ([8]; 250 g/Ha): 90; Herbicidal activity GALAP ([8]; 500 g/Ha): 90; Herbicidal activity LOLPE ([9]; 15 g/Ha): 10; Herbicidal activity LOLPE ([9]; 30 g/Ha): 70; Herbicidal activity LOLPE ([9]; 60 g/Ha): 70; Herbicidal activity LOLPE ([9]; 125 g/Ha): 90; Herbicidal activity LOLPE ([9]; 250 g/Ha): 90; Herbicidal activity LOLPE ([9]; 500 g/Ha): 90; Herbicidal activity on a 0-100 scale, PANMI ([10]; 15 g/Ha): 0; Herbicidal activity on a 0-100 scale, PANMI ([10]; 30 g/Ha): 70; Herbicidal activity on a 0-100 scale, PANMI ([10]; 60 g/Ha): 80; Herbicidal activity on a 0-100 scale, PANMI ([10]; 125 g/Ha): 90; Herbicidal activity on a 0-100 scale, PANMI ([10]; 250 g/Ha): 90; Herbicidal activity on a 0-100 scale, PANMI ([10]; 500 g/Ha): 100; Herbicidal activity POAAN ([11]; 15 g/Ha): 10; Herbicidal activity POAAN ([11]; 30 g/Ha): 20; Herbicidal activity POAAN ([11]; 60 g/Ha): 30; Herbicidal activity POAAN ([11]; 125 g/Ha): 80; Herbicidal activity POAAN ([11]; 250 g/Ha): 80; Herbicidal activity POAAN ([11]; 500 g/Ha): 90; Herbicidal activity SIDSP ([12]; 15 g/Ha): 80; Herbicidal activity SIDSP ([12]; 30 g/Ha): 90; Herbicidal activity SIDSP ([12]; 60 g/Ha): 90; Herbicidal activity SIDSP ([12]; 125 g/Ha): 100; Herbicidal activity SIDSP ([12]; 250 g/Ha): 100; Herbicidal activity SIDSP ([12]; 500 g/Ha): 100; Herbicidal activity on a 0-100 scale, SORVU ([13]; 15 g/Ha): 0; Herbicidal activity on a 0-100 scale, SORVU ([13]; 30 g/Ha): 10; Herbicidal activity on a 0-100 scale, SORVU ([13]; 60 g/Ha): 70; Herbicidal activity on a 0-100 scale, SORVU ([13]; 125 g/Ha): 80; Herbicidal activity on a 0-100 scale, SORVU ([13]; 250 g/Ha): 90; Herbicidal activity on a 0-100 scale, SORVU ([13]; 500 g/Ha): 100; Herbicidal activity STEME ([14]; 15 g/Ha): 90; Herbicidal activity STEME ([14]; 30 g/Ha): 90; Herbicidal activity STEME ([14]; 60 g/Ha): 90; Herbicidal activity STEME ([14]; 125 g/Ha): 90; Herbicidal activity STEME ([14]; 250 g/Ha): 90; Herbicidal activity STEME ([14]; 500 g/Ha): 100; Herbicidal activity TRZAW ([15]; 15 g/Ha): 0; Herbicidal activity TRZAW ([15]; 30 g/Ha): 0; Herbicidal activity TRZAW ([15]; 60 g/Ha): 20; Herbicidal activity TRZAW ([15]; 125 g/Ha): 30; Herbicidal activity TRZAW ([15]; 250 g/Ha): 60; Herbicidal activity TRZAW ([15]; 500 g/Ha): 70; Herbicidal activity VERPE ([16]; 15 g/Ha): 80; Herbicidal activity VERPE ([16]; 30 g/Ha): 80; Herbicidal activity VERPE ([16]; 60 g/Ha): 90; Herbicidal activity VERPE ([16]; 125 g/Ha): 80; Herbicidal activity VERPE ([16]; 250 g/Ha): 100; Herbicidal activity VERPE ([16]; 500 g/Ha): 100; Herbicidal activity XANST ([17]; 60 g/Ha): 80; Herbicidal activity XANST ([17]; 125 g/Ha): 80; Herbicidal activity XANST ([17]; 500 g/Ha): 100; Herbicidal activity ZEAMX ([18]; 15 g/Ha): 0; Herbicidal activity on a 0-100 scale, ZEAMX ([18]; 15 g/Ha): 0; Herbicidal activity ZEAMX ([18]; 30 g/Ha): 10; Herbicidal activity on a 0-100 scale, ZEAMX ([18]; 30 g/Ha): 10; Herbicidal activity ZEAMX ([18]; 60 g/Ha): 20; Herbicidal activity on a 0-100 scale, ZEAMX ([18]; 60 g/Ha): 20; Herbicidal activity ZEAMX ([18]; 125 g/Ha): 40; Herbicidal activity on a 0-100 scale, ZEAMX ([18]; 125 g/Ha): 40; Herbicidal activity ZEAMX ([18]; 250 g/Ha): 70; Herbicidal activity on a 0-100 scale, ZEAMX ([18]; 250 g/Ha): 70; Herbicidal activity ZEAMX ([18]; 500 g/Ha): 100; Herbicidal activity on a 0-100 scale, ZEAMX ([18]; 500 g/Ha): 100
